From PubChem BioAssay AID268 (DTP/NCI, 2004)
Values joined by “and” are separate entries in the source; they are usually repeats but may differ in a detail not shown here. Identical values can stand only once.

Test system: CD2F1 mice, P1798 lymphosarcoma sc, tumor weight T/C
Experiment: NCI In Vivo Anticancer Drug Screen. Data for tumor model P1798 Lymphosarcoma (subcutaneous) in CD2F1 (CDF1) mice
Details: endpoint: mean tumor weight, higher = larger tumour
Procedure: The antitumor activity of compounds was measured in mice bearing transplantable tumors. Survival or tumor size were measured and the results are expressed as the measurement made in the treated group (T) divided by the measurement made in the vehicle treated control group (C). The tumor model used in this assay is P1798 Lymphosarcoma (subcutaneous) in CD2F1 (CDF1) mice

[1] = dose: 0.25 mg/kg/injection, schedule: Q01DX010 (ip), vehicle: saline
[2] = dose: 12.5 mg/kg/injection, schedule: Q01DX010 (sc), vehicle: steriod suspending solution
[3] = dose: 25.0 mg/kg/injection, schedule: Q01DX010 (sc), vehicle: steriod suspending solution
[4] = dose: 50.0 mg/kg/injection, schedule: Q01DX010 (sc), vehicle: steriod suspending solution
[5] = dose: 50.0 mg/kg/injection, schedule: Q01DX010 (ip), vehicle: saline
[6] = dose: 100.0 mg/kg/injection, schedule: Q01DX010 (ip), vehicle: saline
[7] = dose: 200.0 mg/kg/injection, schedule: Q01DX010 (ip), vehicle: saline
[8] = dose: 400.0 mg/kg/injection, schedule: Q01DX010 (ip), vehicle: saline
[9] = dose: 250.0 mg/kg/injection, schedule: Q01DX010 (sc), vehicle: steriod suspending solution
[10] = dose: 375.0 mg/kg/injection, schedule: Q01DX010 (sc), vehicle: steriod suspending solution
[11] = dose: 12.5 mg/kg/injection, schedule: Q01DX005 (sc), vehicle: steriod suspending solution
[12] = dose: 25.0 mg/kg/injection, schedule: Q01DX005 (sc), vehicle: steriod suspending solution
[13] = dose: 25.0 mg/kg/injection, schedule: Q02DX010 (sc), vehicle: steriod suspending solution
[14] = dose: 50.0 mg/kg/injection, schedule: Q01DX005 (sc), vehicle: steriod suspending solution
[15] = dose: 50.0 mg/kg/injection, schedule: Q02DX010 (sc), vehicle: steriod suspending solution
[16] = dose: 100.0 mg/kg/injection, schedule: Q01DX005 (sc), vehicle: steriod suspending solution
[17] = dose: 6.25 mg/kg/injection, schedule: Q01DX010 (ip), vehicle: saline
[18] = dose: 12.5 mg/kg/injection, schedule: Q01DX010 (ip), vehicle: saline
[19] = dose: 25.0 mg/kg/injection, schedule: Q01DX010 (ip), vehicle: saline
[20] = dose: 40.0 mg/kg/injection, schedule: Q01DX010 (ip), vehicle: saline
[21] = dose: 60.0 mg/kg/injection, schedule: Q01DX010 (ip), vehicle: saline
[22] = dose: 100.0 mg/kg/injection, schedule: Q02DX010 (sc), vehicle: steriod suspending solution
[23] = dose: 5.0 mg/kg/injection, schedule: Q01DX010 (ip), vehicle: saline
[24] = dose: 10.0 mg/kg/injection, schedule: Q01DX010 (ip), vehicle: saline
[25] = dose: 20.0 mg/kg/injection, schedule: Q01DX010 (ip), vehicle: saline
[26] = dose: 100.0 mg/kg/injection, schedule: Q01DX010 (sc), vehicle: steriod suspending solution

CC(CCC(C)OS(C)(=O)=O)OS(C)(=O)=O (stereo not given)
T/C (dose: 2.0 mg/kg/injection, schedule: Q01DX010 (ip), vehicle: saline): 101 % of control
T/C (dose: 4.0 mg/kg/injection, schedule: Q01DX010 (ip), vehicle: saline): 59 % of control and 78 % of control
T/C (dose: 8.0 mg/kg/injection, schedule: Q01DX010 (ip), vehicle: saline): 101 % of control and 82 % of control

CS(=O)(=O)OCCN(CCOS(C)(=O)=O)c1ccc(N=O)cc1
T/C [1]: 92 % of control
T/C (dose: 1.0 mg/kg/injection, schedule: Q01DX010 (ip), vehicle: saline): 69 % of control

C[C@]12CC[C@@H]3c4ccc(O)cc4CC[C@H]3[C@@H]1CC(=O)[C@@H]2O
T/C [2]: 94 % of control and 89 % of control
T/C [3]: 92 % of control and 96 % of control
T/C [4]: 78 % of control and 86 % of control

Nc1nc(=O)n(C2CC(O)C(CO)O2)cc1Br (stereo not given)
T/C [5]: 81 % of control
T/C [6]: 65 % of control
T/C [7]: 39 % of control
T/C [8]: 29 % of control
T/C (dose: 800.0 mg/kg/injection, schedule: Q01DX010 (ip), vehicle: saline): 7 % of control

COc1ccc2c(c1)CC[C@@H]1[C@@H]2CC[C@@]2(C)[C@H]1CC[C@@]2(O)C(F)=C(F)F
T/C (dose: 111.0 mg/kg/injection, schedule: Q01DX010 (sc), vehicle: steriod suspending solution): 12 % of control
T/C (dose: 167.0 mg/kg/injection, schedule: Q01DX010 (sc), vehicle: steriod suspending solution): 9 % of control
T/C [9]: 10 % of control
T/C [10]: 8 % of control

C[C@]12CCC(=O)C=C1CC[C@@H]1[C@@H]2[C@@H](O)C[C@@]2(C)[C@H]1CC[C@]2(O)C(=O)CO
T/C [11]: 51 % of control
T/C (dose: 12.5 mg/kg/injection, schedule: Q02DX010 (sc), vehicle: steriod suspending solution): 105 % of control
T/C [12]: 15 % of control
T/C [13]: 105 % of control
T/C [14]: 7 % of control
T/C [15]: 110 % of control
T/C [16]: 1 % of control

NCCCCC(N)C(=O)NCCCCCCCCCCNC(=O)C(N)CCCCN (stereo not given)
T/C [17]: 106 % of control
T/C [18]: 99 % of control
T/C [19]: 122 % of control
T/C [5]: 107 % of control

CN(N=O)C(=O)NC(C=O)C(O)C(O)C(O)CO (stereo not given)
T/C (dose: 22.5 mg/kg/injection, schedule: Q01DX010 (ip), vehicle: saline): 43 % of control
T/C [20]: 97 % of control
T/C (dose: 45.0 mg/kg/injection, schedule: Q01DX010 (ip), vehicle: saline): 53 % of control
T/C [21]: 64 % of control
T/C (dose: 90.0 mg/kg/injection, schedule: Q01DX010 (ip), vehicle: saline): 24 % of control and 29 % of control

CN(C)/N=N/c1nc[nH]c1C(N)=O
T/C [5]: 58 % of control
T/C [6]: 47 % of control
T/C [7]: 7 % of control
T/C [8]: 3 % of control

O=C(CNC(=O)OCc1ccccc1)NCCCCCCNCCCCCCNC(=O)CNC(=O)OCc1ccccc1
T/C [5]: 120 % of control
T/C [6]: 97 % of control

COc1ccc2[nH]c3c(C)c4ccncc4c(C)c3c2c1
T/C (dose: 0.39 mg/kg/injection, schedule: Q01DX010 (ip), vehicle: saline): 104 % of control
T/C (dose: 0.78 mg/kg/injection, schedule: Q01DX010 (ip), vehicle: saline): 111 % of control
T/C (dose: 1.56 mg/kg/injection, schedule: Q01DX010 (ip), vehicle: saline): 73 % of control
T/C [17]: 61 % of control
T/C [18]: 45 % of control
T/C [19]: 40 % of control and 42 % of control

O[C@H](CN1CC1)[C@@H](O)CN1CC1
T/C (dose: 62.5 micrograms/kg/injection, schedule: Q01DX010 (ip), vehicle: saline): 76 % of control
T/C (dose: 125.0 micrograms/kg/injection, schedule: Q01DX010 (ip), vehicle: saline): 62 % of control
T/C (dose: 250.0 micrograms/kg/injection, schedule: Q01DX010 (ip), vehicle: saline): 45 % of control
T/C (dose: 500.0 micrograms/kg/injection, schedule: Q01DX010 (ip), vehicle: saline): 31 % of control

CC(=O)O[C@]1(C(C)=O)CC[C@H]2[C@@H]3C[C@H](C)C4=CC(=O)C=C[C@]4(C)[C@@]3(F)[C@@H](O)C[C@@]21C
T/C [11]: 32 % of control
T/C [2]: 37 % of control and 39 % of control
T/C [12]: 13 % of control
T/C [3]: 15 % of control and 16 % of control and 36 % of control
T/C [13]: 105 % of control
T/C [14]: 1 % of control
T/C [15]: 101 % of control
T/C [16]: 3 % of control
T/C [22]: 105 % of control

C[C@@H]1C[C@@H]([C@H](O)CC2CC(=O)NC(=O)C2)C(=O)[C@@H](C)C1
T/C [23]: 80 % of control and 81 % of control
T/C [24]: 99 % of control and 103 % of control
T/C [25]: 63 % of control and 75 % of control
T/C [20]: 43 % of control and 60 % of control

CCCCCC(=O)O[C@]1(C(C)=O)CC[C@H]2[C@@H]3CCC4=CC(=O)CC[C@]4(C)[C@H]3CC[C@@]21C
T/C [9]: 110 % of control
T/C [10]: 106 % of control
T/C (dose: 500.0 mg/kg/injection, schedule: Q01DX010 (sc), vehicle: steriod suspending solution): 114 % of control
T/C (dose: 750.0 mg/kg/injection, schedule: Q01DX010 (sc), vehicle: steriod suspending solution): 109 % of control

NCC(=O)NCCCCCCNCCCCCCNC(=O)CN
T/C [5]: 82 % of control
T/C [6]: 113 % of control
T/C [7]: 89 % of control
T/C [8]: 73 % of control

C[C@]12CCC(=O)C=C1CC[C@@H]1[C@@H]2CC[C@@]2(C)[C@H]1CC[C@]2(C)O
T/C [2]: 91 % of control
T/C [3]: 61 % of control
T/C [4]: 90 % of control
T/C [26]: 97 % of control

CC(=O)[C@H]1CC[C@H]2[C@@H]3CCC4=CC(=O)[C@H](C)C[C@]4(C)[C@@]3(F)[C@@H](O)C[C@]12C
T/C [3]: 15 % of control
T/C [4]: 5 % of control
T/C [26]: 4 % of control
T/C (dose: 200.0 mg/kg/injection, schedule: Q01DX010 (sc), vehicle: steriod suspending solution): 6 % of control
T/C (dose: 400.0 mg/kg/injection, schedule: Q01DX010 (sc), vehicle: steriod suspending solution): 5 % of control

Cn1cnc([N+](=O)[O-])c1Sc1nc(N)nc2nc[nH]c12
T/C (dose: 2.5 mg/kg/injection, schedule: Q01DX010 (ip), vehicle: saline): 69 % of control
T/C [23]: 75 % of control
T/C [24]: 57 % of control
T/C [25]: 54 % of control

CC(/C=N/N=C(N)N)=N\N=C(N)N
T/C (dose: 15.0 mg/kg/injection, schedule: Q01DX010 (ip), vehicle: saline): 78 % of control
T/C (dose: 30.0 mg/kg/injection, schedule: Q01DX010 (ip), vehicle: saline): 87 % of control
T/C [21]: 50 % of control

CC(=O)NC1=C(N2CC2)C(=O)C(NC(C)=O)=C(N2CC2)C1=O
T/C [1]: 86 % of control
T/C (dose: 0.5 mg/kg/injection, schedule: Q01DX010 (ip), vehicle: saline): 45 % of control

CC(=O)[C@@]12OC(C)(C)O[C@@H]1C[C@H]1[C@@H]3C[C@H](C)C4=CC(=O)CC[C@]4(C)[C@H]3CC[C@@]12C
T/C [11]: 72 % of control
T/C [2]: 64 % of control
T/C [12]: 61 % of control
T/C [13]: 95 % of control
T/C (dose: 25.0 mg/kg/injection, schedule: Q03DX004 (sc), vehicle: steriod suspending solution): 56 % of control
T/C [14]: 38 % of control
T/C [15]: 88 % of control
T/C (dose: 50.0 mg/kg/injection, schedule: Q03DX004 (sc), vehicle: steriod suspending solution): 59 % of control
T/C [16]: 13 % of control
T/C [22]: 93 % of control
T/C (dose: 100.0 mg/kg/injection, schedule: Q03DX004 (sc), vehicle: steriod suspending solution): 16 % of control

C#C[C@]1(O)CC[C@H]2[C@@H]3CCc4cc(O)ccc4[C@H]3CC[C@@]21C
T/C [3]: 71 % of control and 85 % of control
